Reference: US12492202B2, “Macrocyclic PAD4 inhibitors useful as immunosuppressant” (BRISTOL-MYERS SQUIBB COMPANY, priority 2020, dated 2025)
pIC50: −log10 of the molar value.

Target: human PAD4 (hPAD4) (Homo sapiens (Human), UniProt Q9UM07)
Test: RFMS Human PAD4 Functional Assay
Assay type: biochemical
Settings: rapid-fire mass spectrum (RFMS) assay; 5 nM hPAD4 enzyme, 250 μM BAEE, 30 min preincubation at 37° C.

human PAD4 (hPAD4), sequence (Q9UM07 whole entry): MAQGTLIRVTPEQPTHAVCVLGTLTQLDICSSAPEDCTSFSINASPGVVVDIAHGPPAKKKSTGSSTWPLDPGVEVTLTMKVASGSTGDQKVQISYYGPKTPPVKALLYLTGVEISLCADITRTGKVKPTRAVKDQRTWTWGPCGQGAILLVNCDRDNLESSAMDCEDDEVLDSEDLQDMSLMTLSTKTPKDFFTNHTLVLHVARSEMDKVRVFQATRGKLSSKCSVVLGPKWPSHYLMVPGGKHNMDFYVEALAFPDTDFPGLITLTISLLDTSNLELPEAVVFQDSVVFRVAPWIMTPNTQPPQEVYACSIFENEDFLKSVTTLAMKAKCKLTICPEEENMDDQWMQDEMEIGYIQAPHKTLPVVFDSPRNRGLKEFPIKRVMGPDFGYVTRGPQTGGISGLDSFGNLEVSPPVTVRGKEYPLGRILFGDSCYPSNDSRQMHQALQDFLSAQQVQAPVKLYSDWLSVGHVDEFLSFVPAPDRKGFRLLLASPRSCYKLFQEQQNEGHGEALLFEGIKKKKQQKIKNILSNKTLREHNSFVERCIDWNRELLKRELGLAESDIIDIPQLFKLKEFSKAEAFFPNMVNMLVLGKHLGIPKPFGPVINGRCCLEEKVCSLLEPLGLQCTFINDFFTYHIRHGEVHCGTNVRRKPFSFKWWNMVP

| SMILES | pIC50 |
| --- | --- |
| COc1cc(C(=O)N2CC3CCC2[C@@H]3N)cc2nc3n(c12)Cc1ccn(n1)-c1ccccc1OCCCn1c-3cc2ccccc21 (stereo partly drawn) [Example 19, ((7R)-7-amino-2-azabicyclo[2.2.1]heptan-2-yl)((E)-2^7-methoxy-1^1H,2^1H,4^1H-6-oxa-2(2,1)-benzo[d]imidazola-1(2,1)-indola-4(3,1)-pyrazola-5(1,2)-benzenacyclononaphane-2^5-yl)methanone] | 8.30 |
| COc1cc(C(=O)N2C[C@H](N)C[C@@H](F)C2)cc2nc3n(c12)Cc1ccn(n1)-c1ccccc1OCCCn1c-3cc2ccccc21 [Example 20, ((3R,5R)-3-amino-5-fluoropiperidin-1-yl)((E)-2^7-methoxy-1^1H,2^1H,4^1H-6-oxa-2(2,1)-benzo[d]imidazola-l(2,1)-indola-4(3,1)-pyrazola-5(1,2)-benzenacyclononaphane-2^5-yl)methanone] | 7.89 |
| COc1cc(C(=O)N2C[C@H](N)C[C@@H](F)C2)cc2nc3n(c12)Cc1cccc(c1)-c1ccccc1CCCCn1c-3cc2ccccc21 [Example 21, ((3R,5R)-3-amino-5-fluoropiperidin-1l-yl)(2^7-methoxy-1^1IH,2^1H-2(2,1)-benzo[d]imidazola-1(2,1)-indola-4(1,3),5(1,2)-dibenzenacyclononaphane-2^5-yl)methanone] | 6.72 |
| COc1cc(C(=O)N2CC3CCC2[C@@H]3N)cc2nc3n(c12)Cc1cccc(c1)-c1ccccc1CCCCn1c-3cc2ccccc21 (stereo partly drawn) [Example 22, ((1R,4R,7R)-7-amino-2-azabicyclo[2.2.1]heptan-2-yl)(2^7-methoxy-1^1H,2^1H-2(2,1)-benzo[d]imidazola-1(2,1)-indola-4(1,3),5(1,2)-dibenzenacyclononaphane-2^5-yl)methanone] | 7.28 |

Next, values leading:

| pIC50 | SMILES |
| --- | --- |
| 6.96 | COc1cc(C(=O)N2C[C@H](N)C[C@@H](F)C2)cc2nc3n(c12)Cc1cccc(c1)-c1ccccc1CCCCn1c-3cc2cccnc21 [Example 23, ((3R,5R)-3-amino-5-fluoropiperidin-1-yl)(2^7-methoxy-1^1H,2^1H,2(2,1)-dipyrrolo[2,3-b]pyridina-4(1,3),5(1,2)-dibenzenacyclononaphane-2^5-yl)methanone] |
| 7.51 | COc1cc(C(=O)N2C[C@H](N)C[C@@H](F)C2)cc2nc3n(c12)Cc1cc(F)cc(c1)-c1ccccc1CCCCn1c-3cc2cccnc21 [Example 25, ((3R,5R)-3-amino-5-fluoropiperidin-1-yl)(4^5-fluoro-2^7-methoxy-1^1H,2^1H-1,2(2,1)-dipyrrolo[2,3-b]pyridina-4(1,3),5(1,2)-dibenzenacyclononaphane-2^5-yl)methanone] |
| 7.68 | COc1cc(C(=O)N2C[C@H](N)C[C@@H](F)C2)cc2nc3n(c12)Cc1cc(C#N)cc(c1)-c1ccccc1CCCCn1c-3cc2cccnc21 [Example 26, 2^5-((3R,5R)-3-amino-5-fluoropiperidine-1 carbonyl)-2^7-methoxy-1^1H,2^1H-1,2(2,1)-dipyrrolo[2,3-b]pyridina-4(1,3),5(1,2)-dibenzenacyclononaphane-4^5-carbonitrile] |
| 7.31 | COc1cc(C(=O)N2CC3CCC2[C@@H]3N)cc2nc3n(c12)Cc1cc(C#N)cc(c1)-c1ccccc1CCCCn1c-3cc2cccnc21 (stereo partly drawn) [Example 27, 2^5-((1R,4R,7R)-7-amino-2-azabicyclo[2.2.1]heptane-2-carbonyl)-2^7-methoxy-1^1H,2^1H-1,2(2,1)-dipyrrolo[2,3-b]pyridina-4(1,3),5(1,2)-dibenzenacyclononaphane-4^5-carbonitrile] |
| 7.21 | COc1cc(C(=O)N2C[C@H](N)C[C@@H](F)C2)cc2nc3n(c12)Cc1cc(C(N)=O)cc(c1)-c1ccccc1CCCCn1c-3cc2cccnc21 [Example 28, 2^5-((3R,5R)-3-amino-5-fluoropiperidine-1-carbonyl)-2^7-methoxy-1^1H,2^1H-1,2(2,1)-dipyrrolo[2,3-b]pyridina-4(1,3),5(1,2)-dibenzenacyclononaphane-4^5-carboxamide] |
